Data published in ChEMBL document CHEMBL4017483, “Potent and selective oxytocin receptor agonists without disulfide bridges” (Bioorg Med Chem Lett, 2017).
Numbered stars: 1 amine (or outer) side, 2 acyl side, 3 side chain; on linkers, the order of the positions; unused ones are H or OH. Bridge positions count the residues as written; N and C are the ends. Square brackets hold non-standard residues; d marks the D form. Peptide text beside a SMILES is read from it. Hyp = O=C(O)[C@@H]1C[C@@H](O)CN1; tBuAla = CC(C)(C)C[C@H](N)C(=O)O; Suc = O=C(CCC(=O)[*:2])[*:1]; X1 = O=C(CCC[*:2])[*:1]; Dap = NC[C@H](N)C(=O)O; azaGly = NNC(=O)O; Mpa = O=C(O)CCS

Experiments:
Oxytocin receptor = molecular target: T1, Oxytocin receptor (Homo sapiens, UniProt P30559); experiment: Agonist activity at human OTR expressed in CHO cells assessed as calcium mobilization measured after 30 mins by Fluo-4-AM dye based FLIPR assay; assay type: functional, cell-based
T1 sequence (P30559 whole entry): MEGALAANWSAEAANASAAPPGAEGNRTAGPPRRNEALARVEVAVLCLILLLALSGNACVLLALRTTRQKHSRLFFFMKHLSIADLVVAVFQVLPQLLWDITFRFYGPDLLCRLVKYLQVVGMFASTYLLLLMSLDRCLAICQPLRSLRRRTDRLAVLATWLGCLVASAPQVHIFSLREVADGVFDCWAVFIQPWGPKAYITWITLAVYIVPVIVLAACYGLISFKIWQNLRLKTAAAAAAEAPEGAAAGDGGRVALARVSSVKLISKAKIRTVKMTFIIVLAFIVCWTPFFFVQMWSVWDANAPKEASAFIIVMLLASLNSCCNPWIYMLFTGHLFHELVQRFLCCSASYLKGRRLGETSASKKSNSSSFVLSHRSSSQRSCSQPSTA

Vasopressin V1b receptor = molecular target: T2, Vasopressin V1b receptor (Homo sapiens, UniProt P47901); experiment: Agonist activity at human V1b receptor expressed in CHO cells assessed as calcium mobilization measured after 30 mins by Fluo-4-AM dye based FLIPR assay; assay type: cell-based
T2 sequence (P47901 whole entry): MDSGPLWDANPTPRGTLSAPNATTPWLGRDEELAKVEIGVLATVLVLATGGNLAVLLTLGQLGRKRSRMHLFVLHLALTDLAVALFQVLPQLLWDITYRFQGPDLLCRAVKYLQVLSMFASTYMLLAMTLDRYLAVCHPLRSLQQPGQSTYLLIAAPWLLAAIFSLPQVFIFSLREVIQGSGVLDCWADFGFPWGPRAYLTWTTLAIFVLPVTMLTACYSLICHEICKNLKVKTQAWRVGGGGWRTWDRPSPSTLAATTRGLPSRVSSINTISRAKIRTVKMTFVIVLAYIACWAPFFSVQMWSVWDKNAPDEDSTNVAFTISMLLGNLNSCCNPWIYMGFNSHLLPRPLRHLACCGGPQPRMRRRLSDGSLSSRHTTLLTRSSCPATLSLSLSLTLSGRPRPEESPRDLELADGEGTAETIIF

Vasopressin V1a receptor = Vasopressin V1a receptor (Homo sapiens, UniProt P37288); experiment: Agonist activity at human V1a receptor expressed in CHO cells assessed as calcium mobilization measured after 30 mins by Fluo-4-AM dye based FLIPR assay; assay type: cell-based
Homo sapiens [1] = organism: Homo sapiens; experiment: Selectivity ratio of EC50 for human V1a receptor to EC50 for human OTR
Homo sapiens [2] = organism: Homo sapiens; experiment: Selectivity ratio of EC50 for human V1b receptor to EC50 for human OTR

Vasopressin V1a receptor, sequence (P37288 whole entry): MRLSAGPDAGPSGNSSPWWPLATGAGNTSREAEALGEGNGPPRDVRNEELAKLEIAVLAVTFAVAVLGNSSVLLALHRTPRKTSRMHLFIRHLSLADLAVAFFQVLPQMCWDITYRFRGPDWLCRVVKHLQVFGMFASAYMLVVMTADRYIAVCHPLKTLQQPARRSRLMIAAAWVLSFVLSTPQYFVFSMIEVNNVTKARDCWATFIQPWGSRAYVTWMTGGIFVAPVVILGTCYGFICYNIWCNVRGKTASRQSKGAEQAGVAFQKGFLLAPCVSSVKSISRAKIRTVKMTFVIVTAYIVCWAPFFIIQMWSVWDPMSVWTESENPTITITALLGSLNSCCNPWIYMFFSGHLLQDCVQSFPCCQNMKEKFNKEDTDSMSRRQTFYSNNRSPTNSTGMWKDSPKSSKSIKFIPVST

Structure (SMILES) | EC50 (Oxytocin receptor) [nM] | EC50 (Vasopressin V1b receptor) [nM] | EC50 (Vasopressin V1a receptor) [nM] | Ratio EC50 (Homo sapiens [1]) | Ratio EC50 (Homo sapiens [2])
CCCCCC[C@H](NC(=O)[C@@H]1CCCN1C(=O)[C@@H]1CSSCCC(=O)N[C@@H](Cc2ccc(O)cc2)C(=O)N[C@@H]([C@@H](C)CC)C(=O)N[C@@H](CCC(N)=O)C(=O)N[C@@H](CC(N)=O)C(=O)N1)C(=O)NCC(N)=O | 0.027 | 0.55 | 3.1 | 120 | 20
CC[C@H](C)[C@@H]1NC(=O)[C@H](Cc2ccc(O)cc2)NC(=O)CCSSC[C@@H](C(=O)N2C[C@@H](O)C[C@H]2C(=O)N[C@@H](CC(C)C)C(=O)NCC(N)=O)NC(=O)[C@H](CC(N)=O)NC(=O)[C@H](CCC(N)=O)NC1=O | 0.007 | 8.2 | > 100 | > 10000 | 1200
CC[C@H](C)[C@@H]1NC(=O)[C@H](Cc2ccc(O)cc2)NC(=O)CCSSC[C@@H](C(=O)N2CCC[C@H]2C(=O)N[C@@H](CC(C)(C)C)C(=O)NCC(N)=O)NC(=O)[C@H](CC(N)=O)NC(=O)[C@H](CCC(N)=O)NC1=O | 0.0086 | > 100 | > 100 | > 10000 | > 10000
CC[C@H](C)[C@@H]1NC(=O)[C@H](Cc2ccc(O)cc2)NC(=O)CCSSC[C@@H](C(=O)N2CCC[C@H]2C(=O)N[C@@H](CC(C)C)C(=O)N(C)CC(N)=O)NC(=O)[C@H](CC(N)=O)NC(=O)[C@H](CCC(N)=O)NC1=O | 0.12 | > 100 | > 100 | > 100 | > 100
CCCC[C@H](NC(=O)[C@@H]1CCCN1C(=O)[C@@H]1CSSCCC(=O)N[C@@H](Cc2ccc(O)cc2)C(=O)N[C@@H]([C@@H](C)CC)C(=O)N[C@@H](CCC(N)=O)C(=O)N[C@@H](CC(N)=O)C(=O)N1)C(=O)NCC(N)=O | 0.015 | 0.5 | 4.4 | 290 | 33
CC[C@H](C)[C@@H]1NC(=O)[C@H](Cc2ccc(O)cc2)NC(=O)CCSSC[C@@H](C(=O)N2CCCCC2C(=O)N[C@@H](CC(C)C)C(=O)NCC(N)=O)NC(=O)[C@H](CC(N)=O)NC(=O)[C@H](CCC(N)=O)NC1=O (stereo not given in full) | 0.013 | 4 | > 100 | > 1000 | 310
CC[C@H](C)[C@@H]1NC(=O)[C@H](Cc2ccc(O)cc2)NC(=O)CCSSC[C@@H](C(=O)N2C[C@H](O)C[C@H]2C(=O)N[C@@H](CC(C)C)C(=O)NCC(N)=O)NC(=O)[C@H](CC(N)=O)NC(=O)[C@H](CCC(N)=O)NC1=O | 0.0053 | > 100 | > 100 | > 10000 | > 10000
CCCCCCC(NC(=O)[C@@H]1CCCN1C(=O)[C@@H]1CSSCCC(=O)N[C@@H](Cc2ccc(O)cc2)C(=O)N[C@@H]([C@@H](C)CC)C(=O)N[C@@H](CCC(N)=O)C(=O)N[C@@H](CC(N)=O)C(=O)N1)C(=O)NCC(N)=O (stereo not given in full) | 0.027 | 0.55 | 3.1 | 120 | 20
CC[C@H](C)[C@@H]1NC(=O)[C@H](Cc2ccc(O)cc2)NC(=O)CCSSC[C@@H](C(=O)N2CCC[C@H]2C(=O)N[C@@H](CC2CCCCC2)C(=O)NCC(N)=O)NC(=O)[C@H](CC(N)=O)NC(=O)[C@H](CCC(N)=O)NC1=O | 0.01 | 1.4 | > 100 | > 1000 | 140
S | 0.12 | > 100 | > 100 | > 100 | > 100
CC[C@H](C)[C@@H]1NC(=O)[C@H](Cc2ccc(O)cc2)NC(=O)CCCSC[C@@H](C(=O)N2CCC[C@H]2C(=O)N[C@@H](CC(C)C)C(=O)NCC(N)=O)NC(=O)[C@H](CC(N)=O)NC(=O)[C@H](CCC(N)=O)NC1=O (YIQNCPLG-NH2; linker N-5 via X1) | 0.0067 | 6.5 | 45 | 6700 | 970
CC[C@H](C)[C@@H]1NC(=O)[C@H](Cc2ccc(O)cc2)NC(=O)CCCSC[C@@H](C(=O)N2CCC[C@H]2C(=O)N[C@@H](CC(C)(C)C)C(=O)NCC(N)=O)NC(=O)[C@H](CC(N)=O)NC(=O)[C@H](CCC(N)=O)NC1=O (YIQNCP[tBuAla]G-NH2; linker N-5 via X1) | 0.0065 | > 100 | > 100 | > 10000 | > 10000
CC[C@H](C)[C@@H]1NC(=O)[C@H](Cc2ccc(O)cc2)NC(=O)CCCSC[C@@H](C(=O)N2C[C@H](O)C[C@H]2C(=O)N[C@@H](CC(C)C)C(=O)NCC(N)=O)NC(=O)[C@H](CC(N)=O)NC(=O)[C@H](CCC(N)=O)NC1=O (YIQNC[Hyp]LG-NH2; linker N-5 via X1) | 0.0055 | > 100 | > 100 | > 10000 | > 10000
CC[C@H](C)[C@@H]1NC(=O)[C@H](Cc2ccc(O)cc2)NC(=O)CCCSC[C@@H](C(=O)N2C[C@H](O)C[C@H]2C(=O)N[C@@H](CC(C)(C)C)C(=O)NCC(N)=O)NC(=O)[C@H](CC(N)=O)NC(=O)[C@H](CCC(N)=O)NC1=O (YIQNC[Hyp][tBuAla]G-NH2; linker N-5 via X1) | 0.0072 | > 100 | > 100 | > 10000 | > 10000
CC[C@H](C)[C@@H]1NC(=O)[C@H](Cc2ccc(O)cc2)NC(=O)CCC(=O)NC[C@@H](C(=O)N2CCC[C@H]2C(=O)N[C@@H](CC(C)C)C(=O)NCC(N)=O)NC(=O)[C@H](CC(N)=O)NC(=O)[C@H](CCC(N)=O)NC1=O (YIQN[Dap]PLG-NH2; linker N-5 via Suc) | 0.12 | > 100 | > 100 | > 100 | > 100
CC[C@H](C)[C@@H]1NC(=O)[C@H](Cc2ccc(O)cc2)NC(=O)CCC(=O)NC[C@@H](C(=O)N2CCC[C@H]2C(=O)N[C@@H](CC(C)(C)C)C(=O)NCC(N)=O)NC(=O)[C@H](CC(N)=O)NC(=O)[C@H](CCC(N)=O)NC1=O (YIQN[Dap]P[tBuAla]G-NH2; linker N-5 via Suc) | 0.26 | > 100 | > 100 | > 100 | > 100
CC[C@H](C)[C@@H]1NC(=O)[C@H](Cc2ccc(O)cc2)NC(=O)CCC(=O)NC[C@@H](C(=O)N2C[C@H](O)C[C@H]2C(=O)N[C@@H](CC(C)C)C(=O)NCC(N)=O)NC(=O)[C@H](CC(N)=O)NC(=O)[C@H](CCC(N)=O)NC1=O (YIQN[Dap][Hyp]LG-NH2; linker N-5 via Suc) | 0.013 | > 100 | > 100 | > 1000 | > 1000
CC[C@H](C)[C@@H]1NC(=O)[C@H](Cc2ccc(O)cc2)NC(=O)CCC(=O)NC[C@@H](C(=O)N2C[C@H](O)C[C@H]2C(=O)N[C@@H](CC(C)C)C(=O)NNC(N)=O)NC(=O)[C@H](CC(N)=O)NC(=O)[C@H](CCC(N)=O)NC1=O (YIQN[Dap][Hyp]L[azaGly]-NH2; linker N-5 via Suc) | 0.031 | > 100 | > 100 | > 1000 | > 1000
CC[C@H](C)[C@@H]1NC(=O)[C@H](Cc2ccccc2)NC(=O)CCSSC[C@@H](C(=O)N2CCC[C@H]2C(=O)N[C@@H](CC(C)C)C(=O)NCC(N)=O)NC(=O)[C@H](CC(N)=O)NC(=O)[C@H](CCC(N)=O)NC1=O ([Mpa]FIQNCPLG-NH2; disulfide 1-6) | 0.19 | > 100 | > 100 | > 100 | > 100
CC[C@H](C)[C@@H]1NC(=O)[C@H](CC(C)C)NC(=O)CCSSC[C@@H](C(=O)N2CCC[C@H]2C(=O)N[C@@H](CC(C)C)C(=O)NCC(N)=O)NC(=O)[C@H](CC(N)=O)NC(=O)[C@H](CCC(N)=O)NC1=O ([Mpa]LIQNCPLG-NH2; disulfide 1-6) | 3.6 | > 100 | > 100 | > 10 | > 10
CC(C)C[C@H](NC(=O)[C@@H]1CCCN1C(=O)[C@@H]1CSSCCC(=O)N[C@@H](Cc2ccc(O)cc2)C(=O)N[C@@H](C)C(=O)N[C@@H](CCC(N)=O)C(=O)N[C@@H](CC(N)=O)C(=O)N1)C(=O)NCC(N)=O ([Mpa]YAQNCPLG-NH2; disulfide 1-6) | 4.4 | > 100 | > 100 | > 10 | > 10
CC(C)C[C@H](NC(=O)[C@@H]1CCCN1C(=O)[C@@H]1CSSCCC(=O)N[C@@H](Cc2ccc(O)cc2)C(=O)N[C@@H](Cc2ccccc2)C(=O)N[C@@H](CCC(N)=O)C(=O)N[C@@H](CC(N)=O)C(=O)N1)C(=O)NCC(N)=O ([Mpa]YFQNCPLG-NH2; disulfide 1-6) | 0.11 | 0.43 | > 100 | > 100 | 3.9
